Results taken from paper PMC10827914 (Cellular and Molecular Life Sciences: CMLS, 2024).
Values joined by “and” are separate entries in the source; they are usually repeats but may differ in a detail not shown here. Equal values may be shown once. “Also recorded” adds a separate entry of the source. Where a SMILES comes first, the peptide text is derived from it. Bridges are numbered along the chain shown (N, C = ends). Where no end group is shown, it is not given here.

Key:
[1] = test system: rCD13 (His-tagged recombinant human CD13); assay: rCD13 (2 µg/mL) in 60 mM Tris-HCl, pH 7.4; settings: 37°C, up to 16 h
rCD13 = assay: Proteolytic effect of rCD13 on peptide G4 (mass spectrometry); assay type: in vitro ADME, human; settings: G4 Lot #B 10 mM in 60 mM Tris-HCl pH 7.4; rCD13 0, 0.2, 2 µg/mL; 0, 0.5, 16 h; 37 °C; high resolution mass spectrometry
Protocol: Peptide G4 (Lot #B, synthetized and analyzed in-house) (10 mM, in 60 mM Tris-HCl, pH 7.4) was incubated with various amounts of rCD13 (0, 0.2 and 2 µg/mL) for 0, 0.5 and 16 h, as indicated, at 37°C. The enzyme activity was stopped by adding 10% acetic acid. Each sample was then desalted using Zip-tip C18 columns (Merck Millipore), dried in a SAVANT centrifuge, resuspended in 8 µl of 10% formic acid, and analyzed by high resolution mass spectrometry, using a Q-Exactive mass spectrometer (Thermo Scientific, Bremen, Germany) equipped with a nano-electrospray ion source (Proxeon Biosystems). Full scan spectra were acquired with the resolution set to 70000 and mass range from 300 to 1500 m/z. The mass spectra were deconvoluted using the Xtract option within the QualBrowser application of the Thermo Xcalibur software v.4.2.47.

[2] = target: T1, recombinant human CD13 (rCD13) (Homo sapiens, UniProt P15144); assay: rCD13 enzyme inhibition assay, L-alanine 7-amido-4-methylcoumarin substrate; assay type: biochemical
T1 construct: consisting of the CD13 extracellular domain expressed in HEK-293 cells; His-tag; purchased Sino Biological 10051-H08H; host or cells: HEK-293 cells
Protocol: Recombinant CD13 (rCD13) enzyme activity and inhibition assays were performed as described previously using L-alanine-p-nitroanilide or L-alanine 7-amido-4-methylcoumarin as substrates in 60 mM Tris–HCl, pH 7.4, or 60 mM potassium phosphate buffer, pH 7.4. Mixtures containing peptides at various concentrations, rCD13 (0.2 µg/mL), and L-alanine-p-nitroanilide substrate (0.5 mM) in 60 mM potassium phosphate buffer, pH 7.4 (total volume, 0.1 ml) were prepared and left to react for 30 min at 37 °C. The products were then analyzed using a plate reader (iMark Microplate Absorbance Reader; Bio-Rad). Alternatively, the assay was performed using 0.1 mM L-alanine 7-amido-4-methylcoumarin in 60 mM Tris–HCl, pH 7.4, as a substrate. Fluorescence intensity of methylcoumarin was measured on an Infinite 200 PRO plate reader (Tecan) using the following settings: excitation wavelength: 341 nm; emission wavelength: 441 nm; excitation bandwidth: 9; emission bandwidth: 20 nm; gain: 109 manual; number of flashes: 25; integration time: 20 µs; lag time: 0 µs; settle time: 0 ms.
The IC50 of each inhibitor was calculated by non-linear regression analysis of inhibition data using GraphPad Prism Software (GraphPad Software, Version 9.00, San Diego, CA). Steady-state enzyme kinetic analyses were performed using various concentrations of L-alanine-p-nitroanilide (0–1.5 mM) and VGCARRYCS peptide (0–900 nM). The initial velocities (Vo) were calculated from the slopes of the first 5 min of reaction. The enzyme inhibitory constant (Ki) was calculated using the competitive enzyme inhibition model in GraphPad Prism Software.
Fig. 2 G4 recognizes soluble forms of CD13, with higher affinity and selectivity than bestatin, and the membrane forms expressed on the surface of HUVEC cells. A Inhibitory effects of G4 and bestatin on the enzymatic activities of different aminopeptidases (rCD13, APA, and APB). Various amounts of G4 or bestatin were incubated with rCD13 (0.2 µg/mL in 60 mM Tris–HCl pH 7.4), APA (0.2 µg/mL in 60 mM Tris–HCl pH 7.4, 50 mM calcium chloride, 200 mM sodium chloride) or APB (0.2 µg/mL in 60 mM Tris–HCl pH 7.4, 100 mM potassium chloride) and the corresponding substrates at 0.1 mM (L-alanine-7-amido-4-methylcoumarin for rCD13, L-glutamic acid γ-(7-amido-4-methylcoumarin) for APA, and L-arginine-7-amido-4-methylcoumarin for APB). The mixtures were incubated for 30 min at 37 °C, and the cleavage of each substrate was monitored by measuring the fluorescence of methylcoumarin (λex 341 nm; λem 441 nm) using an Infinite 200 PRO plate reader (Tecan). Three independent experiments were performed for each enzyme. The results of one representative experiment for each enzyme are shown (mean ± SEM, duplicates). B Inhibitory effects of G4 and bestatin on soluble CD13 immunocaptured from human serum (sCD13) using microtiter plates coated with anti-CD13 mAb WM15. The microtiter plate was filled with a solution of mAb WM15 (5 μg/ml in DPBS) and incubated overnight at 4 °C. The plate was then washed with DPBS, blocked with 3% bovine serum albumin (BSA) in DPBS, and filled with human serum containing soluble CD13 (diluted 1:2 with DPBS containing 2% BSA). After washing with DPBS, mixtures of G4 or bestatin (0–100 µM in 60 mM Tris–HCl, pH 7.4) and L-alanine p-nitroanilide hydrochloride substrate (4.5 mM in 60 mM Tris–HCl, pH 7.4) were added and left to incubate at 37 °C for 2 h. Substrate cleavage by sCD13 dissociated from mAb WM15 was then monitored by measuring the absorbance at 405 nm in each well using a plate reader (Bio-Rad). The results of one experiment performed in triplicate are shown (mean ± SEM). C Effect of G4 on the binding of the anti-CD13 mAb WM15 to HUVEC. HUVEC were seeded at a density of 2 × 10^5 cells in 100 µL DPBS supplemented with 5% normal human serum (NHS) and incubated with a mixture of G4 peptide (0, 0.1, 1, and 10 µM) and mAb WM15 (0 or 0.13 nM) as indicated. […]

WEHI-164 fibrosarcoma = assay: Antitumor activity in WEHI-164 fibrosarcoma-bearing mice; assay type: in vivo
Protocol: Female BALB/c mice (Charles River Laboratories, Calco, Italy), weighing 16–18 g, were subcutaneously injected into the left flank of 10^6 WEHI-164 cells (ATCC, cat. CRL-1751, Lot. 63,682,839). Dose-finding experiments were performed with groups of six mice treated with G4-TNF (4, 20, or 100 pg/dose in 100 μL of 0.9% sodium chloride containing 100 µg/ml HSA, intraperitoneally injected on day 5) or vehicle. Tumor growth was monitored daily by measuring tumor volume with calipers, as previously described. The animals were sacrificed before the tumor diameter reached 1.0–1.5 cm. To test whether the antitumor activity of G4-TNF was mediated by CD13, tumor-bearing mice (6 animals/group) were treated with a single injection of G4-TNF (100 pg/dose, i.p.) in combination with peptide CNGRC (100 µg/dose) or anti-CD13 mAb R3-63 (25 µg/dose, given 1.5 h i.p. before administration of G4-TNF) 5 days after tumor implantation.
Fig. 3 Effect of G4-TNF on tumor growth and body weight of mice bearing WEHI-164 fibrosarcomas. A Mice bearing subcutaneous WEHI-164 tumors (5–6 mice/groups) were treated 5 days after tumor implantation with a single intraperitoneal injection of G4-TNF (0, 4, 20, or 100 pg). Tumor volume and body weight after treatment were monitored daily. B Effect of mAb R3-63 (anti-murine CD13 antibody, 25 µg) and CNGRC peptide (100 µg) on the antitumor activity of G4-TNF (100 pg) (5–6 mice/group). The arrows indicate the time of treatment. *P < 0.05; **P < 0.01, by Mann–Whitney analysis of the area under the curve for each tumor, with the GraphPad Prism software (mean ± SEM)
A) Mice bearing subcutaneous WEHI-164 tumors (6 mice/groups), were treated 5-6 days after tumor implantation with a single intraperitoneal injection of murine NGR-TNF (0, 25, 50, or 100 pg). Tumor volume and body weight after treatment were monitored daily.
B) Effect of murine TNF (50 pg) on tumor growth and body weight. The arrows indicate the time of treatment (mean ± SEM).

[3] = target: His-tagged recombinant human CD13 (rCD13) (human) (UniProt P15144)
[4] = target: T2, His-tagged recombinant human CD13 (rCD13) (human, UniProt P15144 33-967); assay: steady-state enzyme inhibition kinetics; rCD13 with L-alanine-p-nitroanilide (0-1.5 mM) and … (0-900 nM), 60 mM potassium phosphate buffer, pH 7.4, 37 °C; initial velocities of the first 5 min; competitive enzyme inhibition model (GraphPad Prism); settings: both partners purified
T2 construct: aminopeptidase N / CD13, human, extracellular domain (soluble ectodomain); also called recombinant soluble CD13; recombinant CD13 ectodomain; source: bought: Sino Biological (cat. 10051-H08H), expressed in HEK-293 cells
T2 sequence (P15144 33-967): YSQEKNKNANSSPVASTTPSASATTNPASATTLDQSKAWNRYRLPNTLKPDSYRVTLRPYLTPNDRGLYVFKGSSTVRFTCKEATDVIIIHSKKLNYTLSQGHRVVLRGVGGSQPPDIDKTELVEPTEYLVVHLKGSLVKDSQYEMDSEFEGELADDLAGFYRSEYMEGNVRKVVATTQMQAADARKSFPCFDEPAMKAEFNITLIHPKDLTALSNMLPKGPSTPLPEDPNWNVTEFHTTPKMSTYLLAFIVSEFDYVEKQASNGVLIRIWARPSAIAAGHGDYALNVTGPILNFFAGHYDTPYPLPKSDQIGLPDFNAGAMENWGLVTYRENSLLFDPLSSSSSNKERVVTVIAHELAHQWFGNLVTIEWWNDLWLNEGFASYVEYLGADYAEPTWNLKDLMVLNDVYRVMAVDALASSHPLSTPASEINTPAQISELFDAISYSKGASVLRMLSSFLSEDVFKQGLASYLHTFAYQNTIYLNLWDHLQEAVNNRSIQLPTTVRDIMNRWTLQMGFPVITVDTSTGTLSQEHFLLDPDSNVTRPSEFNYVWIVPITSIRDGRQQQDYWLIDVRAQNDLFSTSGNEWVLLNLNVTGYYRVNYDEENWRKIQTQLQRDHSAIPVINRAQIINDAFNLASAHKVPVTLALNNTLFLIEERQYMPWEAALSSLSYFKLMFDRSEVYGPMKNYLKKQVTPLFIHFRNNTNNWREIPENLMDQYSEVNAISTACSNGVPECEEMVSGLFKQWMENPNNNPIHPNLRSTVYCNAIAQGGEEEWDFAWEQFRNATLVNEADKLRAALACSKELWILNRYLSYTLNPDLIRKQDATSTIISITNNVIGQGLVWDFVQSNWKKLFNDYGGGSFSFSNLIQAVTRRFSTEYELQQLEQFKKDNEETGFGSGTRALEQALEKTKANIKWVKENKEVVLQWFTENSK

T1 sequence (P15144 33-967 limits assumed): as the sequence (P15144 33-967) above
Sequence of His-tagged recombinant human CD13 (rCD13) (human) (P15144 33-967): as above

How did the cleaved bond [1] turn out when VGCARRYCS was run?
Its cleaved bond is “Val1-Gly2, 16 h; also recorded: Gly2-Cys3, 16 h”.

With CC(C)[C@H](N)C(=O)NCC(=O)N[C@H]1CSSC[C@@H](C(=O)N[C@@H](CO)C(=O)O)NC(=O)[C@H](Cc2ccc(O)cc2)NC(=O)[C@H](CCCNC(=N)N)NC(=O)[C@H](CCCNC(=N)N)NC(=O)[C@H](C)NC1=O [G4] (H-VGCARRYCS-OH; disulfide 3-8) as the molecule, how does the “Cleavage of the peptide by rCD13 (stability)” value (rCD13) read?
Its value is “cleavage of Val-1 and Gly-2 was observed only after a long incubation time (16 h) with a large amount of enzyme (2 µg/ml)”.

What about the IC50 ([2]; 0.1 mM L-alanine 7-amido-4-methylcoumarin, 60 mM Tris-HCl pH 7.4, fluorescence, mean ± SEM of n independent experiments, read-out: IC50: peptide concentration that inhibits 50% of rCD13 enzymatic activity) of the same molecule?
Its IC50 is 130 ± 20 nM.

What about the “IC50 of G4 for rCD13 lower than that of bestatin” value ([2]; Fig. 2A) of the same molecule?
The value was 4–5 fold.

CNGRC [reference compound] was tested. Which “Effect on the antitumor activity of G4-TNF” value (WEHI-164 fibrosarcoma; G4-TNF 100 pg i.p. with mAb R3-63 25 µg (1.5 h before) or CNGRC 100 µg) did it give?
The value was “markedly reduced (almost completely)”.

For VGCGRRYCSN (disulfide 3-8 (inferred)) [peptide … (disulfide-bridged)], which IC50 of inhibition of rCD13 enzymatic activity (L-alanine-p-nitroanilide substrate) [3] is on record?
The IC50 of inhibition of rCD13 enzymatic activity (L-alanine-p-nitroanilide substrate) was 2010 nM.

B1: TNF: murine TNF (not linked to G4) (protein)
chain: MSTESMIRDVELAEEALPQKMGGFQNSRRCLCLSLFSFLLVAGATTLFCLLNFGVIGPQRDEKFPNGLPLISSMAQTLTLRSSSQNSSDKPVAHVVANHQVEEQLEWLSQRANALLANGMDLKDNQLVVPADGLYLVYSQVLFKGQGCPDYVLLTHTVSRFAISYQEKVNLLSAVKSPCPKDTPEGAELKPWYEPIYLGGVFQLEKGDQLSAEVNLPKYLDFAESGQVYFGVIAL
Which “Antitumor effect (tumor growth)” value (WEHI-164 fibrosarcoma; single intraperitoneal injection of 50 pg) does the source give for B1 here?
The value was “totally inactive”.

B2: peptide VGCARRYCS (disulfide-bridged, called G4) (peptide)
peptide: VGCARRYCS
modifications: disulfide 3-8 (inferred)
notes: optimised CD13 ligand peptide; also called free G4 peptide; source: synthetic peptide
How did the Ki [4] turn out when B2 was run?
The Ki was 21 nM and ~22 nM.
